Measured values taken from paper PMC12865225 (Clinical and Translational Science, 2026).
Like-named read-outs stand apart in the source and are kept apart here.

Columns and labels:
OATP1B1 = target: T1, OATP1B1 (Homo sapiens, UniProt Q9Y6L6); assay: OATP1B1 inhibition with fluorescent substrate 2′,7′-dichlorofluorescein in HEK293 cells; format: cell-based; conditions: 1 µM 2′,7′-dichlorofluorescein, 30 min preincubation
T1 construct: expressed in transfected cells; host or cells: HEK293 (recombinant baculovirus-mediated transduction)
T1 sequence (Q9Y6L6 1-691): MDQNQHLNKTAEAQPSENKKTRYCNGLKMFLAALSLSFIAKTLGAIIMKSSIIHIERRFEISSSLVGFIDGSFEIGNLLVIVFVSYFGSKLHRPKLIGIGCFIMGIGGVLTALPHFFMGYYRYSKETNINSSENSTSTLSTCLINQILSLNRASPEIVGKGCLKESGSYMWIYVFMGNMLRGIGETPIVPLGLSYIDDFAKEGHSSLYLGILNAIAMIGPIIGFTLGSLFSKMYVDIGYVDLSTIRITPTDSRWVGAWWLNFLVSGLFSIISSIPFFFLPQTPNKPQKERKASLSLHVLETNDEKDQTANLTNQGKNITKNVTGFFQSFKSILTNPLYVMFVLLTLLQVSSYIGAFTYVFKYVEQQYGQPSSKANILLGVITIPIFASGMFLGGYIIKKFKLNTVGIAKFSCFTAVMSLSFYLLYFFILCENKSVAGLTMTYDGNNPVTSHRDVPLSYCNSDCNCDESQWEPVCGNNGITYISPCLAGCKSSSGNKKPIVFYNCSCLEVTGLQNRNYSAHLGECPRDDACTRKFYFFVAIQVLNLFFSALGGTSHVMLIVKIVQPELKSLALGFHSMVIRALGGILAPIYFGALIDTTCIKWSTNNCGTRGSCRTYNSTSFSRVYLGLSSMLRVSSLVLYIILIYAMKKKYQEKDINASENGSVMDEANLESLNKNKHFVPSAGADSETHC
Procedure: 8- (2- [Fluoresceinyl]aminoethylthio)adenosine- 3', 5'- cyclic monophosphate (8-Fluo-cAMP) was acquired from Biolog Life Science Institute (Bremen, Germany), 4′,5′-dibromofluorescein was acquired from Sigma-Aldrich (St. Louis, MO, USA) and 2′,7′-dichlorofluorescein was acquired from Santa Cruz Biotechnology (Dallas, TX, USA).
Inhibition studies with fluorescent substrates in OATP transduced HEK293 cells The concentrations of fluorescent probe substrates were 1 µM 2′,7′-dichlorofluorescein for OATP1B1, 2.5 µM 8-Fluo-cAMP for OATP1B3 and 1 µM 4′,5′-dibromofluorescein for OATP2B1, and these concentrations were selected to be within or below of previously reported […]
reported linear ranges of transport for these substrate-transporter combinations.1,2,4 8-Fluo-cAMP was dissolved in ultrapure water, while dimethyl sulfoxide (DMSO) was used for all other compounds. […] For the quantification of fluorescent substrates, cells were lysed with 120 µl of lysis solution (1% Triton X-100, 5 mM EDTA, 150 mM sodium chloride and 150 mM TRIC-hydrochloride and adjusted to pH 8 with sodium hydroxide) for 30 min at 300 RPM shaking before transferring 80 µl of samples to a transparent 96-well plate containing 20 µl of 0.5 M sodium hydroxide. […] The plates were measured with a fluorescent plate reader (Varioskan LUX from ThermoFisher Scientific). […]

MRP3 = tested on: T2, MRP3; assay: Efflux transport assay in MRP3 HEK293 membrane vesicles; format: biochemical, human; conditions: 5 and 50 µM, 10 min
T2 construct: expressed in transfected cells; host or cells: HEK293 cells

[1] = cited from earlier work; for Total CL: mean value from IV studies
OAT3 = target: T3, OAT3 (Homo sapiens, UniProt Q8TCC7); assay: OAT3 inhibition with 30 min preincubation, fluorescein
T3 sequence (Q8TCC7 1-542): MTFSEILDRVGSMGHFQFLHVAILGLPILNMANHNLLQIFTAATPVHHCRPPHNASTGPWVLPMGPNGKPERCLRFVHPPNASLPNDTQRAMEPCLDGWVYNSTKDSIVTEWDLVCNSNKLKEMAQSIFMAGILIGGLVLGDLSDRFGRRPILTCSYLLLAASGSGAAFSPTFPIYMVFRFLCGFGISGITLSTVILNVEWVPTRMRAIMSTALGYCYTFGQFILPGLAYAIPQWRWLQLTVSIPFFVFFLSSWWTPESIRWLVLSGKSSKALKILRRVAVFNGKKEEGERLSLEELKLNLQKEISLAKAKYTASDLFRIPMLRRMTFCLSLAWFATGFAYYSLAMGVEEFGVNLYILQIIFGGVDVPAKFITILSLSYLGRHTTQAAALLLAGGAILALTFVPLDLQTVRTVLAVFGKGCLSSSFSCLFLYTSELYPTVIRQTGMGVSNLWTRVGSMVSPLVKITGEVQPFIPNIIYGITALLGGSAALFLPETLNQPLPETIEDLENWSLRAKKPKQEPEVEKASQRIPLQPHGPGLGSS
Procedure: In the OATP inhibition assays, inhibitors in warm TP‐buffer were directly applied to cells after media removal, followed by a 30‐min preincubation step in the presence of inhibitors. No preincubation step was included in the OAT inhibition assays. The inhibition assays were conducted as described above, except that inhibitors were included in the substrate solution. The rosuvastatin concentration was 2.5 μM in the OATP inhibition assays, and the transport assays were conducted for 2 min [24]. For the inhibition studies of OAT1 and OAT3, 5 μM fluorescein was assayed within 5 min, while 34 nM methotrexate within a 10 min assay was employed as the substrate for OAT2 and OAT4 [25, 26, 27, 28]. OAT1 and OAT3 cells were lysed with 200 μL of 1 M sodium hydroxide for 10 min, and 150 μL of these samples were transferred to a black well plate for fluorescein quantification. OAT2 and OAT4 cells were lysed with 200 μL of 0.1% Triton‐X100 for 10 min, and 150 μL of the samples were mixed with 4 mL of scintillation cocktail (Opti‐Fluor from PerkinElmer, Waltham, MA, USA). Each inhibition assay included a vehicle control without an inhibitor.
Cells were pre-incubated with the inhibitors and
vehicle for 30 min before the assay was initiated with fresh solutions of inhibitors and substrate.
The uptake into control cells was subtracted from the uptak e into OAT3-expressing cells for […]

[2] = 6.25 mg/kg PO, ref Jusko et al. 1975 11
[3] = 250 mg IV, ref DeSante et al. 1980 7
[4] = 250 mg PO, ref Sutherland et al. 1970 10
[5] = 500 mg PO, ref Beringer et al. 2008 12
[6] = 500 mg PO, ref Gravenkemper et al. 1965 13
[7] = 500 mg PO, ref Røder et al. 1995 14
[8] = 750 mg PO, ref Røder et al. 1995 14
[9] = 1000 mg PO, ref Gravenkemper et al. 1965 13
[10] = 1000 mg PO, ref Putnam et al. 2005 9
[11] = 1000 mg PO, ref Røder et al. 1995 14
[12] = 125 mg PO, ref Sutherland et al. 1970 10
[13] = 250 mg PO, ref Bodey et al. 1972 20
[14] = 500 mg IV, ref Landersdorfer et al. 2007 15
[15] = 500 mg IV, ref Landersdorfer et al. 2008 17
[16] = 500 mg PO, ref Bodey et al. 1972 20
[17] = 1000 mg IV, ref Adam et al. 1983 18
[18] = 1000 mg IV, ref Landersdorfer et al. 2007 15
[19] = 1000 mg IV, ref Landersdorfer et al. 2008 17
[20] = 1000 mg IV, ref Wise et al. 1980 19
[21] = 1000 mg PO MD (day 9), ref Iversen et al. 2023 22
[22] = 1000 mg PO MD (day 27), ref Iversen et al. 2023 22
[23] = 1000 mg PO SD, ref Iversen et al. 2023 22
[24] = 1000 mg PO, ref Everts et al. 2020 16
[25] = 1000 mg PO, ref Gardiner et al. 2018 21

Cc1onc(-c2c(Cl)cccc2Cl)c1C(=O)N[C@@H]1C(=O)N2[C@@H]1SC(C)(C)[C@@H]2C(=O)O [Dicloxacillin]
IC50 at 5 min (OATP1B1; human, HEK293 cells transduced to express OATP1B1, pH 7.4, probe 2′,7′-dichlorofluorescein 1 µM): 3.59 µM | transport by MRP3 (MRP3): did not transport | AUC (mg*h/l) Obs [1, 2]: 33.8 mg·h/L | Cmax (mg/l) Obs [1, 2]: 18.4 mg/L | AUC (mg*h/l) Obs [1, 3]: 23.8 mg·h/L | Cmax (mg/l) Obs [1, 3]: 56.5 mg/L | AUC (mg*h/l) Obs [1, 4]: 19.1 mg·h/L | Cmax (mg/l) Obs [1, 4]: 11.0 mg/L | AUC (mg*h/l) Obs [1, 5]: 36.6 mg·h/L | Cmax (mg/l) Obs [1, 5]: 11.1 mg/L | AUC (mg*h/l) Obs [1, 6]: 41.1 mg·h/L | Cmax (mg/l) Obs [1, 6]: 17.4 mg/L | AUC (mg*h/l) Obs [1, 7]: 30.8 mg·h/L | Cmax (mg/l) Obs [1, 7]: 17.3 mg/L | AUC (mg*h/l) Obs [1, 8]: 66.8 mg·h/L | Cmax (mg/l) Obs [1, 8]: 34.4 mg/L | AUC (mg*h/l) Obs ([1]; 1000 mg IV, ref Nauta and Mattie 1976 8): 114 mg·h/L | AUC (mg*h/l) Obs [1, 9]: 72.4 mg·h/L | Cmax (mg/l) Obs [1, 9]: 28.9 mg/L | AUC (mg*h/l) Obs [1, 10]: 78.0 mg·h/L | Cmax (mg/l) Obs [1, 10]: 31.4 mg/L | AUC (mg*h/l) Obs [1, 11]: 82.5 mg·h/L | Cmax (mg/l) Obs [1, 11]: 30.7 mg/L | fraction absorbed, range reported ([1]; dicloxacillin capsules): 35 – 76% | Total CL [1]: 8.885 L/h | IC50 (OAT3): 18.3 µM

Cc1onc(-c2c(F)cccc2Cl)c1C(=O)N[C@@H]1C(=O)N2[C@@H]1SC(C)(C)[C@@H]2C(=O)O [Flucloxacillin]
IC50 (OATP1B1; 5 min): 9.28 µM | transport by MRP3 (MRP3): did not transport | AUC (mg*h/l) Obs [1, 12]: 8.28 mg·h/L | Cmax (mg/l) Obs [1, 12]: 5.8 mg/L | AUC (mg*h/l) Obs [1, 13]: 14.6 mg·h/L | Cmax (mg/l) Obs [1, 13]: 5.7 mg/L | AUC (mg*h/l) Obs [1, 4]: 14.4 mg·h/L | Cmax (mg/l) Obs [1, 4]: 11.0 mg/L | AUC (mg*h/l) Obs [1, 14]: 60.9 mg·h/L | Cmax (mg/l) Obs [1, 14]: 86.8 mg/L | AUC (mg*h/l) Obs [1, 15]: 54.8 mg·h/L | Cmax (mg/l) Obs [1, 15]: 87.7 mg/L | AUC (mg*h/l) Obs [1, 16]: 29.1 mg·h/L | Cmax (mg/l) Obs [1, 16]: 11.4 mg/L | Cmax (mg/l) Obs ([1]; 500 mg PO, ref Sutherland et al. 1970 10): 14.7 mg/L | AUC (mg*h/l) Obs [1, 8]: 67.8 mg·h/L | Cmax (mg/l) Obs [1, 8]: 34.5 mg/L | AUC (mg*h/l) Obs [1, 17]: 141 mg·h/L | Cmax (mg/l) Obs [1, 17]: 236 mg/L | AUC (mg*h/l) Obs [1, 18]: 122 mg·h/L | Cmax (mg/l) Obs [1, 18]: 167 mg/L | AUC (mg*h/l) Obs [1, 19]: 113 mg·h/L | Cmax (mg/l) Obs [1, 19]: 173 mg/L | AUC (mg*h/l) Obs [1, 20]: 73.6 mg·h/L | Cmax (mg/l) Obs [1, 20]: 140 mg/L | AUC (mg*h/l) Obs [1, 21]: 56 mg·h/L | Cmax (mg/l) Obs [1, 21]: 20 mg/L | AUC (mg*h/l) Obs [1, 22]: 64 mg·h/L | Cmax (mg/l) Obs [1, 22]: 24 mg/L | AUC (mg*h/l) Obs [1, 23]: 51 mg·h/L | Cmax (mg/l) Obs [1, 23]: 21 mg/L | AUC (mg*h/l) Obs [1, 24]: 82 mg·h/L | Cmax (mg/l) Obs [1, 24]: 31 mg/L | AUC (mg*h/l) Obs [1, 25]: 71.6 mg·h/L | Cmax (mg/l) Obs [1, 25]: 27.4 mg/L | ka reported range [1]: 0.17 to 18.2 h⁻¹ | CLR ([1]; mean from reported IV studies): 5.1 L/h | Total CL [1]: 7.75 L/h | IC50 (OAT3): 30.1 µM
